# Laboratory results: patent US12576099B2, “Ribose-modified cap analog and use thereof” (Beijing Youcare Kechuang Pharmaceutical Technology Co., Ltd., priority 2024, dated 2026)
# Assays:
# [1] = Characterization of lipid nanoparticles encapsulating Fluc-mRNA prepared from different cap structures; assay type: physicochemical; settings: for Particle size: LNP (YK-009/DSPC/cholesterol/DMG-PEG2000) with Fluc-mRNA transcribed using the named cap analog; for PDI: LNP with Fluc-mRNA transcribed using the named cap analog; for EE: encapsulation efficiency of LNP with Fluc-mRNA transcribed using the named cap analog
# Method: Cationic lipid YK-009 (Beijing Youcare Kechuang Pharmaceutical Technology Co., Ltd.), DSPC (AVT (Shanghai) Pharmaceutical Technology Co., Ltd.), cholesterol (AVT (Shanghai) Pharmaceutical Technology Co., Ltd.), and DMG-PEG2000 were dissolved in ethanol at a molar ratio of 49:10:39.5:1.5, and the mRNA was diluted in 50 mM citrate buffer (pH=4). The ethanol lipid solution was mixed with the Fluc-mRNA aqueous solution prepared from different cap structures at a volume ratio of 1:3 using a microfluidic device at a flow rate of 10 mL/min to prepare LNPs at a weight ratio of total lipid to mRNA of approximately 15:1.
# The resulting liposomes were diluted to 10-fold volume with PBS, and then ultrafiltered with a 300 KDa ultrafiltration tube to remove ethanol. The volume was then fixed to a certain volume with PBS. Finally, the LNPs were filtered through a 0.2 μm sterile filter to obtain an LNP preparation encapsulating Fluc-mRNA using YK-009/DSPC/cholesterol/DMG-PEG2000 (at a molar ratio of 49:10:39.5:1.5).
# The particle size and polydispersity index (PDI) were determined by dynamic light scattering using a Malvern laser particle size analyzer. 10 μL of the liposome solution was taken, diluted to 1 mL with RNase-free deionized water, and added to a sample pool. Each sample was measured in triplicate. The measurement conditions were: a scattering angle of 90° and a temperature of 25° C. The encapsulation efficiency of LNPs was determined using the Quant-iT RiboGreen RNA Quantification Kit (Thermo Fisher Scientific, UK) according to the manufacturer's instructions.
# T7 RNA polymerase [2] = molecular target: T1, T7 RNA polymerase (Escherichia phage T7, UniProt P00573); test: In vitro transcription yield of mRNA using cap analogs; assay type: biochemical; settings: for Yield per unit template: in vitro transcription, 1 μg DNA template, 37° C., 2 hours
# T1 sequence (P00573 whole entry): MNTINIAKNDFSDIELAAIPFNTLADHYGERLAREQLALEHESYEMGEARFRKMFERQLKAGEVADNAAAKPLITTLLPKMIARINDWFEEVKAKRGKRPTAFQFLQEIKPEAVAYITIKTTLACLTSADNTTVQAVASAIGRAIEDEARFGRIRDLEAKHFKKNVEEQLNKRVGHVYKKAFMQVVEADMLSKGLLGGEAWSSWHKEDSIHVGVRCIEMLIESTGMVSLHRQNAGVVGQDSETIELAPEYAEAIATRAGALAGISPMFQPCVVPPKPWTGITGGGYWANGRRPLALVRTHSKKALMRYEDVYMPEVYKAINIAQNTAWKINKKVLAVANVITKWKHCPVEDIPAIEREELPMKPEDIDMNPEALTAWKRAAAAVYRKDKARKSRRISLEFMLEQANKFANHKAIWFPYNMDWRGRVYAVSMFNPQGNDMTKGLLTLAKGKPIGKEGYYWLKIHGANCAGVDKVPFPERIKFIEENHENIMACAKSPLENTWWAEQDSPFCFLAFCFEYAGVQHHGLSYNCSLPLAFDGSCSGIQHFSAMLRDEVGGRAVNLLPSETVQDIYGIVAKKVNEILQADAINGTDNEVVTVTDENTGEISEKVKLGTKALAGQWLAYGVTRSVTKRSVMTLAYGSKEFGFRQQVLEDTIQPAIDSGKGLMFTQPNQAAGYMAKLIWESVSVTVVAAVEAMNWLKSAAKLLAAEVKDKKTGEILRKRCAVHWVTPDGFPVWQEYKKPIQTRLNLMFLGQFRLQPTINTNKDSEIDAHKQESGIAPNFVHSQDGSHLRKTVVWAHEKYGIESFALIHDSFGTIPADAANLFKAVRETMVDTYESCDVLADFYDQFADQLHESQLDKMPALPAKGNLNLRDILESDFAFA
# Method: • (1) Capping synthesis using cap analogs
# The plasmid was first linearized with plasmid linearizing enzyme, and then the linearized plasmid was purified. • (2) In vitro transcription and synthesis of mRNA
# (§1) During the experiment, the volume of materials required for the system was first calculated, and then sample addition was conducted. The system was first added with sterile enzyme-free water, followed by the sequential addition of 10× buffer, NTPs, and cap analogs, mixed well, and gently centrifuged. Nuclease inhibitors, inorganic pyrophosphatase, T7RNA polymerase, and linearized DNA templates were then added thereto. The system was mixed well, gently centrifuged, and incubated at 37° C. After 2 hours of incubation, the system was added with 1 U of DNase I and incubated at 37° C. for another 30 minutes. The mRNA precipitate was then washed with 75% ethanol, and after the ethanol was briefly evaporated to dryness, the mRNA was redissolved in sterile enzyme-free water. • (3) The transcription product was purified, and the in vitro transcription yield of mRNA was recorded. • (4) The obtained mRNA was subjected to an annealing reaction with a probe.
# DCP2 enzyme = molecular target: T2, DCP2 enzyme (Schizosaccharomyces pombe, UniProt O13828); test: Decapping enzyme stability test; assay type: biochemical; settings: for Decapping rate (%) of DCP2 enzyme: 50 U mRNA decapping enzyme, 37° C., 45 minutes
# T2 construct: purchased New England Biolabs
# T2 sequence (O13828 1-243 limits assumed): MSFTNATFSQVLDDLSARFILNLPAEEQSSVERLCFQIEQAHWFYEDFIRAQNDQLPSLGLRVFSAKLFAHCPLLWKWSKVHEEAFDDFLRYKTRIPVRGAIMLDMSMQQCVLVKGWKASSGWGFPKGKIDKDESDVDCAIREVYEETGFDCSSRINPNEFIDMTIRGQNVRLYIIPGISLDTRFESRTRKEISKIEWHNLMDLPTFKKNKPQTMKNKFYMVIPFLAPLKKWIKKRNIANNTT
# T2 sequence (Q9P805 1-127 partner): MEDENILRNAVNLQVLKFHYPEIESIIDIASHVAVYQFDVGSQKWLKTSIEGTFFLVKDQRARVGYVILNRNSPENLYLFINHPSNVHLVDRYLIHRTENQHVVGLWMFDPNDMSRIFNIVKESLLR
# T2 sequence (Q10108 155-180 partner limits assumed): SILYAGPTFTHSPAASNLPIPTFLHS
# Method: […] of RNA purified by polyacrylamide gel electrophoresis (PAGE) was subjected to an enzymatic reaction with 50 U of mRNA decapping enzyme (New England Biolabs) and 1×MDE buffer at 37° C. for 45 minutes. The enzymatic reactants were subjected to PAGE and stained with SYBR Green II (Lonza), followed by observation of the post-electrophoresis gel image on a Typhoon FLA 7000 (GE Healthcare) instrument. The electrophoresis band intensity ratio of RNA capping to RNA decapping was counted using ImageQuant (GE Healthcare) software, and the decapping rate of the decapping enzyme was calculated.
# T7 RNA polymerase [3] = molecular target: T1, T7 RNA polymerase; test: Capping rate of mRNA transcription initiated by cap analogs (LC-MS); assay type: biochemical; settings: for Capping rate: LC-MS of mRNA 5′ fragment
# Method: as §1
# The annealing reaction was performed in a PCR instrument: 95° C. for 5 minutes; 65° C. for 2 minutes; 55° C. for 2 minutes; 40° C. for 2 minutes; 22° C. for 2 minutes. • (5) Magnetic bead pretreatment and probe binding: 100 μL of magnetic beads was placed on a magnetic frame for pretreatment. The magnetic bead solution was added with 120 μL of sample and incubated at room temperature for 30 minutes with slow mixing. • (6) mRNA splicing and obtaining the mRNA 5′ single-strand sequence bound to the probe
# The mixture was added with 20 μL of RNase H (5 U/μL) and incubated at 37° C. for 3 hours with mixing every half hour. After incubation, the magnetic beads were washed and then added with 100 μL of 75% methanol heated to 80° C. The mixture was heated to 80° C. on a heating plate, held for 3 minutes, then placed on a magnetic frame to aspirate the supernatant, and dried at room temperature for 45 minutes to a volume of 10 μL using a centrifugal evaporator. The sample was then resuspended in 50 μL of 100 μM EDTA/1% MeOH and ready for LC-MS analysis to determine the capping of RNA in the transcription reaction. Since there is a significant difference in molecular weight between capped and uncapped bases, the capping rate of mRNA transcription initiated by different cap analogs can be determined based on the difference in molecular mass.
# HEK293T cells = test: Translation efficiency of different capped luciferase mRNAs; assay type: cell-based; settings: for Relative fluorescence intensity: HEK293T, 0.5 μg mRNA per well, 24 hours, proportional to translation efficiency; for Multiple of m6A (relative fluorescence intensity): relative to m6A
# Method: • (1) HEK293T cells were cultured in DMEM medium containing 10% FBS and penicillin/streptomycin at 37° C. with 5% CO2. • (2)Cells in the culture dish were digested and counted, then spread in a 96-well plate at 10,000 cells per well, and cultured overnight until the cells adhered to the wall. • (3) When the cell density reached approximately 80%, transfection was performed by adding 0.5 μg of mRNA sample and Lipofectamine MessengerMAX Transfection Reagent (Invitrogen) per well according to the manufacturer's instructions. • (4) After the transfected cells were cultured at 37° C. with 5% CO2 for 24 hours, the growth medium was removed from the cells to be tested, and the cells were rinsed with PBS. After centrifugation to remove PBS, 50 μL of 1× lysis buffer was added. The cells and all liquid were transferred to a microcentrifuge tube and centrifuged. • (5) 20 μL of sample was taken and added to 100 μL of Dual-Lumi™ II Luciferase Assay Reagent pre-equilibrated to room temperature, and mixed appropriately. • (6) The mixture was incubated at room temperature (approximately 25° C.) for 5 minutes to stabilize the luminescence signal. Chemiluminescence was detected using a multifunctional microplate reader with a function for detecting chemiluminescence, and the data were recorded.
# The relative fluorescence intensity is proportional to the translation efficiency of mRNA.
Compound,Particle size [1],PDI [1],EE [1],Yield per unit template (T7 RNA polymerase [2]),Increase relative to 5227 (in vitro transcription yield) (T7 RNA polymerase [2]),Decapping rate (%) of DCP2 enzyme (DCP2 enzyme),Decrease relative to N-7113 (decapping rate) (DCP2 enzyme),Capping rate (T7 RNA polymerase [3]),Increase relative to 5227 (capping rate) (T7 RNA polymerase [3]),Relative fluorescence intensity (HEK293T cells),Multiple of m6A (relative fluorescence intensity) (HEK293T cells)
CO[C@@H]1[C@H](OP(=O)(O)OC[C@H]2O[C@@H](n3cnc4c(=O)[nH]c(N)nc43)[C@H](O)[C@@H]2O)[C@@H](COP(=O)(O)OP(=O)(O)OP(=O)(O)OC[C@H]2OC([n+]3cn(C)c4c(=O)[nH]c(N)nc43)[C@H](NC(C)=O)[C@@H](O)[C@@H]2O)O[C@H]1n1cnc2c(N)ncnc21 (stereo partly drawn) [YK-CAP-102],73.22 nm,0.055,95.3%,44.1 µg,−67.1%,41.2%,2.6%,30.2%,−58.0%,0.34,0.9
"COC1[C@H](n2cnc3c(N)ncnc32)O[C@H](COP(=O)(O)OP(=O)(O)OP(=O)(O)OC[C@@]23COC([C@H]([n+]4cn(C)c5c(=O)[nH]c(N)nc54)O2)[C@H]3O)[C@H]1OP(=O)(O)OCC1OC(n2cnc3c(=O)[nH]c(N)nc32)C(O)C1O (stereo partly drawn) [Compound 14, reference compound]",79.35 nm,0.073,94.2%,123.2 µg,−8.2%,26.8%,17.0%,78.3%,8.9%,,2.9
CO[C@@H]1[C@H](OP(=O)(O)OC[C@H]2O[C@@H](n3cnc4c(=O)[nH]c(N)nc43)[C@H](O)[C@@H]2O)[C@@H](COP(=O)(O)OP(=O)(O)OP(=O)(O)OC[C@H]2O[C@@H]([n+]3cn(C)c4c(=O)[nH]c(N)nc43)[C@H](O)[C@]2(F)CN(C)C)O[C@H]1n1cnc2c(N)ncnc21 [YK-CAP-104],69.24 nm,0.047,95.7%,73.2 µg,−45.5%,46.1%,−2.3%,77.2%,7.4%,0.81,2.1
CO[C@@H]1[C@H](OP(=O)(O)OC[C@H]2O[C@@H](n3cnc4c(=O)[nH]c(N)nc43)[C@H](O)[C@@H]2O)[C@@H](COP(=O)(O)OP(=O)(O)OP(=O)(O)OC[C@H]2O[C@@H]([n+]3cn(C)c4c(=O)[nH]c(N)nc43)[C@H](O)[C@]2(C)C#N)O[C@H]1n1cnc2c(N)ncnc21 [YK-CAP-105],77.22 nm,0.063,95.7%,82.3 µg,−38.7%,33.9%,9.9%,69.3%,−3.6%,0.72,1.9
CO[C@@H]1[C@H](OP(=O)(O)OC[C@H]2O[C@@H](n3cnc4c(=O)[nH]c(N)nc43)[C@H](O)[C@@H]2O)[C@@H](COP(=O)(O)OP(=O)(O)OP(=O)(O)OC[C@H]2O[C@@H](C[n+]3cn(C)c4c(=O)[nH]c(N)nc43)[C@H](O)[C@@H]2O)O[C@H]1n1cnc2c(N)ncnc21 [YK-CAP-103],67.24 nm,0.053,94.7%,88.0 µg,−34.4%,36.5%,7.3%,71.1%,−1.1%,0.77,2.0
